Measurements: the NIST ThermoML archive (doi:10.1016/j.tca.2012.06.011)
Several values for one entry are separate records, joined by “and”; a condition that tells them apart may be missing. Equal entries are not always repeated.

Key:
[1] = 101 kPa, Liquid; for viscosity: Capillary tube (Ostwald / Ubbelohde) method; for mass density: Vibrating tube method
[2] = xn = mol fraction of the nth substance listed; settings: 101 kPa, Liquid; for viscosity: Capillary tube (Ostwald / Ubbelohde) method; for mass density: Vibrating tube method

CN1CCNCC1 [N-methylpiperazine]
[1]
Settings | mass density [kg/m3] | viscosity [mPa·s]
298.15 K | 899.28 | 1.854
303.15 K | 894.9 | 1.583
308.15 K | 890.5 | 1.409
313.15 K | 886.07 | 1.258
323.15 K | 877.28 | 1.064

C1C[C@@H]2[C@H]3CC[C@H](C3)[C@@H]2C1 [exo-tetrahydrodicyclopentadiene]
[1]
Settings | mass density | viscosity [mPa·s]
298.15 K | 931.29 kg/m3 | 2.8
303.15 K | 927.38 kg/m3 | 2.549
308.15 K | 923.45 kg/m3 and 923.46 kg/m3 | 2.332
313.15 K | 919.54 kg/m3 | 2.124
323.15 K | 911.7 kg/m3 | 1.811

C1C[C@@H]2[C@H]3CC[C@H](C3)[C@@H]2C1 [exo-tetrahydrodicyclopentadiene] + CN1CCNCC1
[2], x2 = 0
Settings | mass density [kg/m3] | viscosity [mPa·s]
298.15 K | 931.29 | 2.8
303.15 K | 927.38 | 2.549
308.15 K | 923.45 | 2.332
313.15 K | 919.54 | 2.124
323.15 K | 911.7 | 1.811

CCN(CC)CC [triethylamine]
[1]
Settings | mass density [kg/m3] | viscosity [mPa·s]
298.15 K | 724.21 | 0.366
303.15 K | 719.54 | 0.34
308.15 K | 714.84 | 0.334
313.15 K | 710.1 | 0.331
323.15 K | 700.71 | 0.298

CCN(CC)CC [triethylamine] + C1C[C@@H]2[C@H]3CC[C@H](C3)[C@@H]2C1
[2], x1 = 1
Settings | mass density [kg/m3] | viscosity [mPa·s]
298.15 K | 724.21 | 0.366
303.15 K | 719.54 | 0.34
308.15 K | 714.84 | 0.334
313.15 K | 710.1 | 0.331
323.15 K | 700.71 | 0.298
